Results published in patent EP0029617A1, “Use of tertiary heterocyclic amines as synergists in pesticides; derivatives of cycloamines” (priority 1979, dated 1981).
Read-outs that look alike come from different tables or passages of the source.

Test system: Kornkäfer (sitophilus granarius L)
Assay: whole plant or invertebrate
Assay type: in vivo
Settings: for Wirksamkeit in % Substanz +Ripcord: amine 1 mg/ml mixed 1 : 1 with Ripcord 0,01 mg/ml; for Wirksamkeit in % Substanz +Talcord: amine 1 mg/ml mixed 1 : 1 with Talcord 0,01 mg/ml; for mortality at 1000 µg/mL: Sitophilus granarius, read-out: Wirksamkeit in % Substanz allein
Method: Test von tertiären, heterocyclischen Aminen allein und im Gemisch mit Pyrethroiden an Kornkäfern (sitophilus granarius L)
In Petrischalen mit 15 cm Durchmesser mit talcumbepuderten Seitenwänden, um das Entfliehen der Kornkäfer zu verhindern, wurden jeweils 2 ml der Acetonlösungen einpipettiert und durch vorsichtiges Schwenken der Schalen gleichmäßig auf dem Boden verteilt. Nach dem Abdampfen des Acetons und dem Antrocknen der Beläge wurden in jede Schale 25 Kornkäfer eingezählt. Nach einer Stunde wurde jeweils ein 12,5 cm Rundfilter in die Schalen eingelegt, um den Käfern das Befreien aus der Rückenlage zu ermöglichen, was auf der glatten Glasplatte nicht möglich ist. Die lichtscheuen Käfer verkrochen sich mit Vorliebe unter die Filter und blieben so ständig mit den Wirkstoffbelägen in Kontakt. Alle Versuche liefen mit 3 Wiederholungen. Nach 3 h wurden die toten Käfer ausgezählt.
In der Tabelle 3 ist jeweils der Durchschnitt der Summe der 4 Einzelwerte angegeben. 25 tote Kornkäfer entsprechen dabei einer Wirkung von 100 %. Die Temperaturen betrugen während der Tests im Durchschnitt 19 - 21°C. Der synergistische Faktor berechnet sich analog wie in Beispiel 1 angegeben.
Die zu prüfenden tertiären, heterocyclischen Amine wurden - mit 1 mg Wirkstoff pro ml als Acetonlösungen angesetzt. Sie wurden im Verhältnis 1 : 1 mit Ripcord bzw. Talcord, die mit 0,01 mg Wirkstoff pro ml als Acetonlösung vorlagen, gemischt. Die Einzelkomponenten wurden im Verhältnis 1 : 1 mit Aceton gemischt.
Auch bei diesen Versuchen zeigten die Kontrollversuche stets bei Versuchsende eine Mortalität der Kornkäfer von 0 %.
Die synergistische Wirkung der tertiären, heterocyclischen Amine auf die Pyrethroide ist auch dann noch deutlich, wenn das Amin in wesentlich niederen Aufwandmengen eingesetzt wird, als dies in Beispiel 3 beschrieben wurde. Die Ergebnisse sind in der Tabelle 4 zusammengestellt. Dieser Versuch zeigt auch, daß Amine mit insektiziden Eigenschaften, wenn sie in Konzentrationen unterhalb ihres insektiziden Wirkungsbereiches eingesetzt werden, immer noch gute synergistische Wirkungen im Gemisch mit Pyrethroiden zeigen. Die Versuche wurden wie im Beispiel 3 beschrieben mit Kornkäfern durchgeführt. Es wurden lediglich die Konzentrationen der eingesetzten tertiären, heterocyclischen Amine geändert. Für die Verdünnung Pyrethroid : Amin = 1 : 10 wurde das Amin mit 0,1 mg Wirkstoff/ml Acetonlösung eingesetzt. Für die Verdünnung 1 : 5 mit 0,05 mg Wirkstoff/ml.

[1] = amine 1 mg/ml + Ripcord 0,01 mg/ml
[2] = amine 1 mg/ml + Talcord 0,01 mg/ml
[3] = amine 1 mg/ml in Aceton mixed 1 : 1 with Aceton, 2 ml per dish, 25 weevils, dead counted after 3 h
[4] = Pyrethroid : Amin 1 : 10, amine 0,1 mg/ml, 180 min

Compound	Synergistischer Faktor bei Ripcord [1]	Synergistischer Faktor bei Talcord [2]	Wirksamkeit in % Substanz allein [3]	Wirksamkeit in % Substanz +Ripcord (3 h)	Wirksamkeit in % Substanz +Talcord (3 h)	other results
c1ccc(CCN2CCOCC2)cc1 [N-1-Phenyl-ethyl-(2)-morpho-lin]	2,76	7,55	0%	86,8%	73,2%	
c1ccc(OCCCN2CCCCCC2)cc1 [N-3-Phenoxi-propyl-(1)-hexamethylenimin]	2,03	3,42	0%	64,0%	33,2%	
c1ccc(OCCN2CCOCC2)cc1 [N-(2-Phenoxi-ethyl-(1))-morpholin]	2,45	6,47	0%	77,2%	62,8%	
N-Hydrinden-piperidin	1,36	5,90	0%	42,8%	57,2%	
OC(CCl)CN1CCCCC1 (stereo not drawn) [1-N-Piperidino-2-hydroxi-3-chlor-propan]	1,74	5,65	0%	54,8%	54,8%	
CCOC(=O)C(c1ccccc1)N1CCCC1 (stereo not drawn) [Phenyl-N-pyrrolidin-essigsäure-ethylester]	2,92	2,60	0%	92,0%	25,2%	
CCCCCCCCCCCCN1CCOCC1 [N-1-Dodecyl-morpholin]	2,76	1,53		86,8%	14,8%	mortality at 1000 µg/mL [3]: 0%
CC(C)=CCCC(C)=CCCC(C)=CCN1CCCCC1 [N-Farnesyl-piperidin]	2,67	4,25		84,0%	41,2%	mortality at 1000 µg/mL [3]: 0%
C1CCC(N2CCCC2)CC1 [N-Cyclohexyl-pyrrolidin]	2,16	1,72		68,0%	17,2%	mortality at 1000 µg/mL [3]: 0%
CC(C)=CCCC(C)=CCN1CCCCC1 [N-1-Piperidino-3,7-dimethyl-octadien-(2,6)]	2,79	8,37	0%	88,0%	81,2%	
OCCC(O)N1CCCC1 (stereo not drawn) [1-N-Pyrrolidino-propandiol-(1,3)]	3,17	8,12	0%	100,0%	78,8%	
C(CCCCCN1CCCC1)CCCCN1CCCC1 [1,10-N,N-Di-pyrrolidino-decan]	2,54	3,00	0%	80,0%	29,2%	
C(CCCCN1CCCCC1)CCCN1CCCCC1 [1,8-N,N-Di-piperidino-octan]			61,2%	90,8%	65,2%	
CCCCCCCCN1CCCCC1 [N-1-Octyl-piperidin]	1,74	1,24		54,8%	12,0%	mortality at 1000 µg/mL [3]: 0%
CC(C)=CCC/C(C)=C\CN1CCCCC1 [cis-8-N-Piperidino-2,6-di-methyl-octadien-(2,6)]	2,16	2,76	0%	68,0%	26,8%	
N#CCN1CCCCCC1 [N-Hexamethylenimino-aceto-nitril]	1,69	1,53	0%	53,2%	14,8%	
CC1(C)C(C=C(Cl)Cl)C1C(=O)OCc1cccc(Oc2ccccc2)c1 (stereo not drawn) [Talcord, reference compound]						Wirksamkeit von Talcord (Talcord alone, 0,01 mg/ml mixed 1 : 1 with Aceton, 3 h): Wirksamkeit von Talcord: 9,7%
CN(C)C(=O)N1CCCCCC1 [N-Dimethyl-carbamoyl-hexa-methylenimin]	2,45	5,48	0%	77,2%	53,2%	
Clc1ccc(CN2CCCC2)cc1 [N-4-Chlor-benzyl-pyrrolidin]	3,17	2,35	0%	100,0%	22,8%	Synergistischer Faktor bei Ripcord (Pyrethroid : Amin 1 : 10): 3,09; Synergistischer Faktor bei Talcord (Pyrethroid : Amin 1 : 10): 7,55; % Wirkung Substanz +Ripcord [4]: 97,2%; % Wirkung Substanz +Talcord [4]: 73,2%; % Wirkung Substanz allein (amine 0,1 mg/ml (as for Pyrethroid : Amin 1 : 10), 180 min): 0%
CCCCCCCCN1CCCCC1CC (stereo not drawn) [N-1-Octyl-2-ethyl-piperidin]	1,52	2,60		74,8%	52,0%	mortality at 1000 µg/mL [3]: 26.8%
C=CCN1CCCCC1 [N-1-Allyl-piperidin]	2,32	1,36	0%	73,2%	13,2%	
CCCCOC(CN1CCCCC1)OCCCC [2-N-Piperidino-ethyl-dibutyl-acetal]			0%	86,8%	36,0%	Synergistischer Faktor bei Ripcord (in vivo): 2,76; Synergistischer Faktor bei Talcord (in vivo): 3,71
Oc1cc(CN2CCCCC2)c(O)cc1CN1CCCCC1 [2,5-Bis-(N-piperidino-methyl)-hydrochinon]	1,78	2,47	0%	56,0%	24,0%	
C=CC(C)(CCC=C(C)CCC=C(C)C)N1CCCC1 (stereo not drawn) [3-N-pyrrolidino-3,7,11-tri-methyl-1,6,10-dodecatrien]	3,00	3,59	0%	94,8%	34,8%	
CCCCCCCCCCCCN1CC1 [N-1-Dodecyl-ethylenimin]	2,86	3,71		90,0%	36,0%	mortality at 1000 µg/mL (3 h): 0%
COc1cc(C=O)cc(CN2CCCCC2)c1O [3-N-(Piperidino-methyl)-4-hydroxid-5-methoxi-benz-aldehyd]	2,79	4,12	0%	88,0%	40,0%	
C1CCN(CCOCCOCCN2CCCC2)C1 [1,2-Bis-(2-N-pyrrolidino-ethoxi)-ethan]	3,17	7,13	0%	100,0%	69,2%	
N-Hydrinden-morpholin	1,40	3,17	0%	44,0%	30,8%	
CN(C)C(=O)N1CCCCC1 [N-Dimethyl-carbamoyl-piperidin]	1,69	6,60	0%	53,2%	64,0%	
